Among the data in ChEMBL document CHEMBL3627608, “Crystal structures of human RIP2 kinase catalytic domain complexed with ATP-competitive inhibitors: Foundations for understanding inhibitor selectivity” (Bioorg Med Chem, 2015) are inhibition values, retold here.

Each structure is given as a SMILES string.

For assay [1], the target named is Lymphokine-activated killer T-cell-originated protein kinase (Homo sapiens) (UniProt Q96KB5). The assay is described as follows: Inhibition of PBK (unknown origin) at 10 uM after 120 mins P33 radiolabeled kinase activity assay.
In assay [2] the target is RAC-gamma serine/threonine-protein kinase (Homo sapiens) (UniProt Q9Y243). Briefly: Inhibition of AKT3 (unknown origin) at 10 uM after 120 mins P33 radiolabeled kinase activity assay.
The target in assay [3] is Calcium/calmodulin-dependent protein kinase type II subunit alpha (Homo sapiens) (UniProt Q9UQM7). The assay is described as follows: Inhibition of CAMK2alpha (unknown origin) at 10 uM after 120 mins P33 radiolabeled kinase activity assay.
The target in assay [4] is Tau-tubulin kinase 1 (Homo sapiens) (UniProt Q5TCY1). The assay is described as follows: Inhibition of TTBK1 (unknown origin) at 10 uM after 120 mins P33 radiolabeled kinase activity assay.
Assay [5] deals with Serine/threonine-protein kinase tousled-like 1 (Homo sapiens) (UniProt Q9UKI8). The assay is described as follows: Inhibition of TLK1 (unknown origin) at 10 uM after 120 mins P33 radiolabeled kinase activity assay.
In assay [6] the target is Interleukin-1 receptor-associated kinase 4 (Homo sapiens) (UniProt Q9NWZ3). Briefly: Inhibition of IRAK4 (unknown origin) at 10 uM after 120 mins P33 radiolabeled kinase activity assay.
Assay [7] deals with Serine/threonine-protein kinase WNK1 (Homo sapiens) (UniProt Q9H4A3). The assay is described as follows: Inhibition of WNK1 (unknown origin) at 10 uM after 120 mins P33 radiolabeled kinase activity assay.
Assay [8] addresses T1, Mitogen-activated protein kinase kinase kinase 6 (Homo sapiens) (UniProt O95382).
T1 sequence (whole entry): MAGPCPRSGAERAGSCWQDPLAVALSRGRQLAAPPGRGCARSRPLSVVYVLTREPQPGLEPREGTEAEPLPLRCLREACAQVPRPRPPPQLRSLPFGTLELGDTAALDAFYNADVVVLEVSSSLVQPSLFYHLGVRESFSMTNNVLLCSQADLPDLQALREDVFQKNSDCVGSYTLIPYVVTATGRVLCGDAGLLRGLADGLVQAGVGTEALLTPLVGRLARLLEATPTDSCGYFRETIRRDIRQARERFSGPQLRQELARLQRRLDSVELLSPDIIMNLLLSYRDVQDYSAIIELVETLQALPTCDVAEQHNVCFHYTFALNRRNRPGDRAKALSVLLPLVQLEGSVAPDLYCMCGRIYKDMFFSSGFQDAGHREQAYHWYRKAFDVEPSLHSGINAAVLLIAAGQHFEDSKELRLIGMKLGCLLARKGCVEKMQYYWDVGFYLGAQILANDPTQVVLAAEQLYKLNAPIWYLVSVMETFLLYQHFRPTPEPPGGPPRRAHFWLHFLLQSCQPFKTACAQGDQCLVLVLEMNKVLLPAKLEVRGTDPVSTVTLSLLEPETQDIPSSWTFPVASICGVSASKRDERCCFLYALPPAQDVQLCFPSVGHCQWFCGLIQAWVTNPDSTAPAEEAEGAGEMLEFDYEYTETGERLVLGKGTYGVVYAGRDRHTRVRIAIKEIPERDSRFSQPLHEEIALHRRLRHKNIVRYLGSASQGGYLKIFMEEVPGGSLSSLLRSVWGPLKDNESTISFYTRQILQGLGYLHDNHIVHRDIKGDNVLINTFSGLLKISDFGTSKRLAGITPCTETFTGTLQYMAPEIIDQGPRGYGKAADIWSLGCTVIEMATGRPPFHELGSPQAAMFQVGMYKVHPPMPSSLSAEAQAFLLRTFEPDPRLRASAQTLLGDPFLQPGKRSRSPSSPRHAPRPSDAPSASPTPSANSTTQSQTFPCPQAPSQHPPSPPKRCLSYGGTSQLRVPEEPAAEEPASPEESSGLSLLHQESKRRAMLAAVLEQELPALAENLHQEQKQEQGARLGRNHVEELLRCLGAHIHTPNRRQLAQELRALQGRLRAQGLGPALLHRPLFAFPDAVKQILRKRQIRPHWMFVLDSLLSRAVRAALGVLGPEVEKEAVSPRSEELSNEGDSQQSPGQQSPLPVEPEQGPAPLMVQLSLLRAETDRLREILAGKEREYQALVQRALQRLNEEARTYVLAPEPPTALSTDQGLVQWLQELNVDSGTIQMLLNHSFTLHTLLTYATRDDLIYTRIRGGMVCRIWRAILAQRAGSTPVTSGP
Briefly: Inhibition of MEKK6 (unknown origin) at 10 uM after 120 mins P33 radiolabeled kinase activity assay.

Assay [9] addresses Calcium/calmodulin-dependent protein kinase kinase 1 (Homo sapiens) (UniProt Q8N5S9). The assay is described as follows: Inhibition of CAMKK1 (unknown origin) at 10 uM after 120 mins P33 radiolabeled kinase activity assay.
In assay [10] the target is PAS domain-containing serine/threonine-protein kinase (Homo sapiens) (UniProt Q96RG2). The assay is described as follows: Inhibition of PASK (unknown origin) at 10 uM after 120 mins P33 radiolabeled kinase activity assay.
Assay [11] concerns the target Serine/threonine-protein kinase VRK2 (Homo sapiens) (UniProt Q86Y07). Briefly: Inhibition of VRK2 (unknown origin) at 10 uM after 120 mins P33 radiolabeled kinase activity assay.
Assay [12] concerns the target Casein kinase II subunit alpha' (Homo sapiens) (UniProt P19784). Briefly: Inhibition of CK2alpha2 (unknown origin) at 10 uM after 120 mins P33 radiolabeled kinase activity assay.
The target of assay [13] is Bone morphogenetic protein receptor type-2 (Homo sapiens) (UniProt Q13873). Briefly: Inhibition of BMPR2 (unknown origin) at 10 uM after 120 mins P33 radiolabeled kinase activity assay.
Assay [14] concerns the target Dual specificity mitogen-activated protein kinase kinase 4 (Homo sapiens) (UniProt P45985). Briefly: Inhibition of MKK4 (unknown origin) at 10 uM after 120 mins P33 radiolabeled kinase activity assay.
Assay [15] has as its target Cyclin-Y/Cyclin-dependent kinase 16 (Homo sapiens) (UniProt Q00536+Q8ND76). The assay is described as follows: Inhibition of CDK16/cyclin Y (unknown origin) at 10 uM after 120 mins P33 radiolabeled kinase activity assay. Type of assay: protein-complex assay.
For assay [16], the target named is Dual specificity mitogen-activated protein kinase kinase 1 (Homo sapiens) (UniProt Q02750). Briefly: Inhibition of MEK1 (unknown origin) at 10 uM after 120 mins P33 radiolabeled kinase activity assay.
For assay [17], the target named is Serine/threonine-protein kinase Sgk2 (Homo sapiens) (UniProt Q9HBY8). Briefly: Inhibition of SGK2 (unknown origin) at 10 uM after 120 mins P33 radiolabeled kinase activity assay.
In assay [18] the target is Calcium/calmodulin-dependent protein kinase kinase 2 (Homo sapiens) (UniProt Q96RR4). The assay is described as follows: Inhibition of CAMKK2 (unknown origin) at 10 uM after 120 mins P33 radiolabeled kinase activity assay.
The target in assay [19] is Rho-associated protein kinase 1 (Homo sapiens) (UniProt Q13464). The assay is described as follows: Inhibition of ROCK1 (unknown origin) at 10 uM after 120 mins P33 radiolabeled kinase activity assay.
The target in assay [20] is CDK4/Cyclin D3 (Homo sapiens) (UniProt P11802+P30281). Briefly: Inhibition of CDK4/cyclin D3 (unknown origin) at 10 uM after 120 mins P33 radiolabeled kinase activity assay. The assay is classed as protein-complex assay.
Assay [21] concerns the target SRSF protein kinase 3 (Homo sapiens) (UniProt Q9UPE1). Briefly: Inhibition of MSSK1 (unknown origin) at 10 uM after 120 mins P33 radiolabeled kinase activity assay.

Sequence of PAS domain-containing serine/threonine-protein kinase (Homo sapiens) (Q96RG2 whole entry, the tested form may be a part): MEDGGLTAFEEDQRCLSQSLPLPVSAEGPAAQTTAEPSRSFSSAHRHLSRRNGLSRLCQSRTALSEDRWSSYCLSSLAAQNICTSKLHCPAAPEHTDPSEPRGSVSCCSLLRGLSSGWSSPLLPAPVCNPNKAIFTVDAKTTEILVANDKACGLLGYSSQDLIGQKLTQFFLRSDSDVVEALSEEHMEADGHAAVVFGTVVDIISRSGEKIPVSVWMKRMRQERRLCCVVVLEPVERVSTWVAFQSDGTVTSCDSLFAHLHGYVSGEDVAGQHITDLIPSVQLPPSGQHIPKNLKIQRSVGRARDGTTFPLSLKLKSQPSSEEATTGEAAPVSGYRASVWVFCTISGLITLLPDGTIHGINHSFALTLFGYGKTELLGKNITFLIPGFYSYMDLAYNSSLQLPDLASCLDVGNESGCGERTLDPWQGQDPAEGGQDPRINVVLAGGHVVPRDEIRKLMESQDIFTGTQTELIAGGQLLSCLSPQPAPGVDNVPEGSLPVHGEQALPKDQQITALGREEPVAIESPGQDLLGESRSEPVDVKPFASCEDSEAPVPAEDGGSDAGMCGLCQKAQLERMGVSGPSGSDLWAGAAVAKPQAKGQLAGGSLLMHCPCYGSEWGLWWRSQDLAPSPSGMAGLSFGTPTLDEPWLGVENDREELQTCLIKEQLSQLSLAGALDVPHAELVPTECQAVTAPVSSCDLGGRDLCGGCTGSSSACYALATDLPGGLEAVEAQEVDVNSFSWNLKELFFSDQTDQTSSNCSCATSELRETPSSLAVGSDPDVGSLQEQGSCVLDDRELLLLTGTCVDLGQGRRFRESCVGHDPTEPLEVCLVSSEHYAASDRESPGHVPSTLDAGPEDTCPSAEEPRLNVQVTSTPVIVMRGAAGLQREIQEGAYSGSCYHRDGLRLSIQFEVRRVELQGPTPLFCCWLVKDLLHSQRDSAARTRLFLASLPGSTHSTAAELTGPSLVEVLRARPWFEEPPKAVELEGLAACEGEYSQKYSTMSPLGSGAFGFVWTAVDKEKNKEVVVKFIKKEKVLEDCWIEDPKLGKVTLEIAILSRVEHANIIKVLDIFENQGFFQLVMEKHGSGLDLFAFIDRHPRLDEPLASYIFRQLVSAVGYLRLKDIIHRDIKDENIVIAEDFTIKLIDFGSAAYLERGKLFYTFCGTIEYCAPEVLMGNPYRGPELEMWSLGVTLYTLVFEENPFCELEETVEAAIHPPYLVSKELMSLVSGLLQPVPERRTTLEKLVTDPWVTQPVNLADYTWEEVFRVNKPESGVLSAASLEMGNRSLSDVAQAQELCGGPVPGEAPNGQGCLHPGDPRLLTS
Sequence of Serine/threonine-protein kinase Sgk2 (Homo sapiens) (Q9HBY8 whole entry): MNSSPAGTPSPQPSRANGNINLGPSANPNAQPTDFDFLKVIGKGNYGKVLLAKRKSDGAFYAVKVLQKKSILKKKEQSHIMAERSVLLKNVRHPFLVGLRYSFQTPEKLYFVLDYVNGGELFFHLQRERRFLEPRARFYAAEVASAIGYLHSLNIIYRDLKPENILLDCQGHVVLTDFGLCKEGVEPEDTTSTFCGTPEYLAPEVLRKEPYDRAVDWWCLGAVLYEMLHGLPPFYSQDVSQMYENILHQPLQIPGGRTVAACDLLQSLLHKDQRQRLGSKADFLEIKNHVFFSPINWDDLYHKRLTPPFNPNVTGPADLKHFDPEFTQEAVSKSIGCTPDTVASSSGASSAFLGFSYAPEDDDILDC
Sequence of Interleukin-1 receptor-associated kinase 4 (Homo sapiens) (Q9NWZ3 whole entry): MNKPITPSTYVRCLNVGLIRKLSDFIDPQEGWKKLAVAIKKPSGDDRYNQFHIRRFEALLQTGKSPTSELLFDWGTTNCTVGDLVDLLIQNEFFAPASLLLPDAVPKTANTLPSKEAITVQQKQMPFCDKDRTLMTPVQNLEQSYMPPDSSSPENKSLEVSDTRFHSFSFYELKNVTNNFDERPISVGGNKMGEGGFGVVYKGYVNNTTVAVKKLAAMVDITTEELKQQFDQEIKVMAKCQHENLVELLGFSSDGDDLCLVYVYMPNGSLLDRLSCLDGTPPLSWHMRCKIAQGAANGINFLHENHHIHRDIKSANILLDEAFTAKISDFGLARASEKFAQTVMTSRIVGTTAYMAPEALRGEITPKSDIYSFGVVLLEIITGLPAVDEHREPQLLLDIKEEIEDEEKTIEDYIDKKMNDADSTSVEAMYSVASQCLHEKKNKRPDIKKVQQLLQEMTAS
Sequence of Casein kinase II subunit alpha' (Homo sapiens) (P19784 whole entry, looked up): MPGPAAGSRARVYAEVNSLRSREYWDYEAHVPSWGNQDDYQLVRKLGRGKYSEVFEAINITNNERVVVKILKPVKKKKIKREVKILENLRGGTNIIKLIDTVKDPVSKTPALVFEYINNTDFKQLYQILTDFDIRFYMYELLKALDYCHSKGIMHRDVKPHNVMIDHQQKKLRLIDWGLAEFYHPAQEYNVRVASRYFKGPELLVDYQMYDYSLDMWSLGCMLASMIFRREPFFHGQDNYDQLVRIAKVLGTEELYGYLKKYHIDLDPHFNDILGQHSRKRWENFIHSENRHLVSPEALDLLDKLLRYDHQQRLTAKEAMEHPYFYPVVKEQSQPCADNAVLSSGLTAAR
Sequence of Calcium/calmodulin-dependent protein kinase type II subunit alpha (Homo sapiens) (Q9UQM7 whole entry): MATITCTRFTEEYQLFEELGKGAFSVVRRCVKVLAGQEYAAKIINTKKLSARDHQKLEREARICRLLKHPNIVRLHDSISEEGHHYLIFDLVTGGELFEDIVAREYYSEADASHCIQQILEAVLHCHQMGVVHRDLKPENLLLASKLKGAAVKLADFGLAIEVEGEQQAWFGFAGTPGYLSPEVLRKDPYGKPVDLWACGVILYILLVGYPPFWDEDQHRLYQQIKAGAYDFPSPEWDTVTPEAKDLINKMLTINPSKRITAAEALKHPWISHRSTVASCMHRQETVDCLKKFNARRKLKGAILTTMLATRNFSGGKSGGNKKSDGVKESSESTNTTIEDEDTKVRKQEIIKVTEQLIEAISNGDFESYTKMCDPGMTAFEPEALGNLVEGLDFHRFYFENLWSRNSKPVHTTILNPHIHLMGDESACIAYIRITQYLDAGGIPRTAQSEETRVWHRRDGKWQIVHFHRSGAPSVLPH
Sequence of Dual specificity mitogen-activated protein kinase kinase 1 (Homo sapiens) (Q02750 whole entry): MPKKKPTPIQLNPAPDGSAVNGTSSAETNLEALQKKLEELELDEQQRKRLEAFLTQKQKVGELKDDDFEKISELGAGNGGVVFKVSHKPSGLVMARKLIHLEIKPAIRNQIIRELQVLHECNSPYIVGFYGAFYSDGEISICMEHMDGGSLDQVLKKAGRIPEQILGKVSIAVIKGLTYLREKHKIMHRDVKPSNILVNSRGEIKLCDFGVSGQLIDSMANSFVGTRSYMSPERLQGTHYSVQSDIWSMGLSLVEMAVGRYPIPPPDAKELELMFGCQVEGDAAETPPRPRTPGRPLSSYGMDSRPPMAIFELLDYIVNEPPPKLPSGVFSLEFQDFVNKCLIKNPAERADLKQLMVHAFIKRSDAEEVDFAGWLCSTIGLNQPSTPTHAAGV
Sequence of Dual specificity mitogen-activated protein kinase kinase 4 (Homo sapiens) (P45985 whole entry): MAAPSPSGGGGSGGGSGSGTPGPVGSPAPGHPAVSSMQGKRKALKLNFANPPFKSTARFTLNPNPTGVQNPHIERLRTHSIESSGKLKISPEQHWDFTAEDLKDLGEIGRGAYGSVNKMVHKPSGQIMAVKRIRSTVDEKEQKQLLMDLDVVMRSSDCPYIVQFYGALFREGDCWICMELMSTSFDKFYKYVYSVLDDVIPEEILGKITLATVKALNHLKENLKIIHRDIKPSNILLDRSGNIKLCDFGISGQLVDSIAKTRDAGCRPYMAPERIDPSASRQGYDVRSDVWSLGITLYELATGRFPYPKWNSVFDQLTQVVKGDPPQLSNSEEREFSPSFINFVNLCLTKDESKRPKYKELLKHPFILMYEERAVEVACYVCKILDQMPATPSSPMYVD
Sequence of SRSF protein kinase 3 (Homo sapiens) (Q9UPE1 whole entry): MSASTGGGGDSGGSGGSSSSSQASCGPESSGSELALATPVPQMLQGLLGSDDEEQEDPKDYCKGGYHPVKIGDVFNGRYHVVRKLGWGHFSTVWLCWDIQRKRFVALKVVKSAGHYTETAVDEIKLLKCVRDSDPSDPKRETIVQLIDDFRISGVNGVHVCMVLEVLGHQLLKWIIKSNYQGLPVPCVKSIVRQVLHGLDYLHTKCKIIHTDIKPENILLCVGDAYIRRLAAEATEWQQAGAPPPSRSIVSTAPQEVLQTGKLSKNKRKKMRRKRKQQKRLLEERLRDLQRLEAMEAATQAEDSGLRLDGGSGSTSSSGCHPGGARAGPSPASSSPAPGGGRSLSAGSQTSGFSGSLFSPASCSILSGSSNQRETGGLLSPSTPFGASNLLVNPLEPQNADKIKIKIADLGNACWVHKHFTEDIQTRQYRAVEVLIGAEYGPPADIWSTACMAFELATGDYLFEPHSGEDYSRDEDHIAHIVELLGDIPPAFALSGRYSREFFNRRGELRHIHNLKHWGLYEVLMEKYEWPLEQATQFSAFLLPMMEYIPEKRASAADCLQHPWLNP
Sequence of RAC-gamma serine/threonine-protein kinase (Homo sapiens) (Q9Y243 whole entry): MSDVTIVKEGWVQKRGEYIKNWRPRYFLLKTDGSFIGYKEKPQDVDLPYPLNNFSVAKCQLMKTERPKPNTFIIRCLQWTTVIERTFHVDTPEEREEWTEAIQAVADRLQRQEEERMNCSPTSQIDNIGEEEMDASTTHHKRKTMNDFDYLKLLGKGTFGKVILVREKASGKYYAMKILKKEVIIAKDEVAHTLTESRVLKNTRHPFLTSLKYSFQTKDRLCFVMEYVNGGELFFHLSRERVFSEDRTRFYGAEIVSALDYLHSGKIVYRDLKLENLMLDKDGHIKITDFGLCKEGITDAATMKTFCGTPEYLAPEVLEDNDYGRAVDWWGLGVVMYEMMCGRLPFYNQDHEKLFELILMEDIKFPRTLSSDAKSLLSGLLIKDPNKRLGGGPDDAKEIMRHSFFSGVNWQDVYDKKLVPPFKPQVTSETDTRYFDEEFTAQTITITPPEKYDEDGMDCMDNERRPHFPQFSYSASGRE

Consider `COCCNC(=O)c1ccc2c(c1)nc(-c1cnc(-c3ccc(Cl)cc3)[nH]1)n2CCOC`, for which the inhibition (usually the change of the read-out against control, counted positive when it falls) is 11.6% in assay [1]; 6.03% in assay [2]; -3.57% in [3]; 7.91% in assay [4]; -7.05% in assay [5]; 13.9% in assay [6]. Moreover, the inhibition was 8.03% in assay [7]; -0.42% in [8]; -7.72% in [9]; -2.42% in [10]; -4.56% in assay [11]; -7.82% in assay [12].
For the molecule `CC(C)(C)c1cc(NC(=O)Nc2ccc(Oc3ccncc3)cc2)no1`, the inhibition in assay [1] came out at 12.2%; in [4], 8.16%; in [6], 24.7%; in [13] it was 6.56%; in assay [7] it was 5.52%; in assay [14], 1.14%. In addition, the inhibition in [15] was 84.5%; in assay [8], 4.35%; in assay [16], 22%; in [17] it was 15.5%; in [9], 60.5%; in assay [10], 10.9%. Besides, the inhibition was -5.34% in assay [11]; 54.2% in [18]; 9.07% in assay [19]; 92.5% in [20]; 85% in [21].
For the molecule `CS(=O)(=O)c1cccc(Nc2nccc(-c3sc(N4CCOCC4)nc3-c3cccc(NS(=O)(=O)c4c(F)cccc4F)c3)n2)c1`, the inhibition in assay [2] is 6.38%; in assay [3], -6.79%; in [5], -4.48%; in assay [13], 19.6%; in assay [14], 19.4%; in [15] it was 92%. The inhibition in [8] is -4.09%; in assay [16] it was 72.5%; in assay [17] it was 50%; in assay [10], -0.14%; in assay [12], 39.8%; in assay [18] it was -1.4%. The inhibition in [19] was -6.9%; in assay [20] it was 26.6%; in assay [21] it was -1.37%.
